# Test results taken from patent US12077503B2, “Substituted cyclic amides and their use as herbicides” (FMC CORPORATION, priority 2015, dated 2024).
# Key:
# Format in all cases: in vivo
# [1] = test system: redroot pigweed (Amaranthus retroflexus); assay: Test G Pre-Emergence Protocol; conditions: Amaranthus retroflexus, pre-emergence, 312 h, evaluated after 13 days; for pest or weed control at 15.625 g/ha: 15.625 g ai/ha; for pest or weed control at 15.625 g/ha / pest or weed control at 250 g/ha: read-out: Pigweed, Redroot damage rating (100=total damage to plant; 0=no damage to plant); for pest or weed control at 62.5 g/ha: 62.5 g ai/ha, 100=total damage to plant, 0=no damage to plant, read-out: plant damage rating, Pigweed, Redroot; for pest or weed control at 250 g/ha: 250 g ai/ha
# Method: (§1) Seeds of corn (Zea mays), giant foxtail (Setaria faberi), barnyardgrass (Echinochloa crus-galli), ivy-leaved morning glory (Ipomoea hederacea), redroot pigweed (Amaranthus retroflexus) and velvetleaf (Abutilon theophrasti) were sown in standard soil in pots. After cultivation for one day under controlled conditions in a glasshouse (at 24/16° C., day/night; 14 hours light; 65% humidity), the plants were sprayed with an aqueous spray solution derived from the formulation of the technical active ingredient in acetone/water (50:50) solution containing 0.5% Tween 20 (polyoxyethylene sorbitan monolaurate, CAS RN 9005-64-5) to give a final dose of 15.625, 62.5 or 250 g/ha of test compound.
# (§2) The test plants were then grown on under controlled conditions in a glasshouse (at 24/16° C., day/night; 14 hours light; 65% humidity) and watered twice daily. After 13 days the test was evaluated (100=total damage to plant; 0=no damage to plant). A dash (-) means no test result.
# [2] = test system: giant foxtail (Setaria faberi); assay: Test G Pre-Emergence Protocol; conditions: Setaria faberi, pre-emergence, 312 h, evaluated after 13 days; for pest or weed control at 15.625 g/ha: 15.625 g ai/ha; for pest or weed control at 15.625 g/ha / pest or weed control at 250 g/ha: read-out: Foxtail, Giant damage rating (100=total damage to plant; 0=no damage to plant); for pest or weed control at 62.5 g/ha: 62.5 g ai/ha, 100=total damage to plant, 0=no damage to plant, read-out: plant damage rating, Foxtail, Giant; for pest or weed control at 250 g/ha: 250 g ai/ha
# Method: as §1, §2
# [3] = test system: barnyardgrass (Echinochloa crus-galli); assay: Test G Pre-Emergence Protocol; conditions: Echinochloa crus-galli, pre-emergence, 312 h, evaluated after 13 days; for pest or weed control at 15.625 g/ha: 15.625 g ai/ha, read-out: Barnyard grass damage rating (100=total damage to plant; 0=no damage to plant); for pest or weed control at 62.5 g/ha: 62.5 g ai/ha, 100=total damage to plant, 0=no damage to plant, read-out: plant damage rating, Barnyardgrass; for pest or weed control at 250 g/ha: 250 g ai/ha, read-out: Barnyardgrass damage rating (100=total damage to plant; 0=no damage to plant)
# Method: as §1, §2
# [4] = test system: velvetleaf (Abutilon theophrasti); assay: Test G Pre-Emergence Protocol; conditions: Abutilon theophrasti, pre-emergence, 312 h, evaluated after 13 days; for pest or weed control at 15.625 g/ha: 15.625 g ai/ha; for pest or weed control at 15.625 g/ha / pest or weed control at 250 g/ha: read-out: Velvetleaf damage rating (100=total damage to plant; 0=no damage to plant); for pest or weed control at 62.5 g/ha: 62.5 g ai/ha, 100=total damage to plant, 0=no damage to plant, read-out: plant damage rating, Velvetleaf; for pest or weed control at 250 g/ha: 250 g ai/ha
# Method: as §1, §2
# [5] = test system: ivy-leaved morning glory (Ipomoea hederacea); assay: Test G Pre-Emergence Protocol; conditions: Ipomoea, pre-emergence, 312 h, evaluated after 13 days; for pest or weed control at 15.625 g/ha: 15.625 g ai/ha, read-out: Morning-glory, Ivy-leaved damage rating (100=total damage to plant; 0=no damage to plant); for pest or weed control at 62.5 g/ha: 62.5 g ai/ha, 100=total damage to plant, 0=no damage to plant, read-out: plant damage rating, Morningglory, Ivy-leaved; for pest or weed control at 250 g/ha: 250 g ai/ha, read-out: Morningglory, Ivy-leaved damage rating (100=total damage to plant; 0=no damage to plant)
# Method: as §1, §2
# corn (Zea mays) [6] = assay: Test G Pre-Emergence Protocol; conditions: Zea mays, pre-emergence, 312 h, evaluated after 13 days; for plant injury at 15.625 g/ha: 15.625 g ai/ha; for plant injury at 15.625 g/ha / plant injury at 250 g/ha: read-out: Corn damage rating (100=total damage to plant; 0=no damage to plant); for plant injury at 62.5 g/ha: 62.5 g ai/ha, 100=total damage to plant, 0=no damage to plant, read-out: plant damage rating, Corn; for plant injury at 250 g/ha: 250 g ai/ha
# Method: as §1, §2
# [7] = test system: redroot pigweed (Amaranthus retroflexus); assay: Test G Post-Emergence Protocol; conditions: Amaranthus retroflexus, post-emergence, 312 h; for pest or weed control at 15.625 g/ha: 15.625 g ai/ha, evaluated after 13 days (100=total damage to plant; 0=no damage to plant), read-out: Pigweed, Redroot damage rating; for pest or weed control at 62.5 g/ha: 62.5 g ai/ha, read-out: Pigweed, Redroot damage rating (100=total damage to plant; 0=no damage to plant); for pest or weed control at 62.5 g/ha / pest or weed control at 250 g/ha: evaluated after 13 days; for pest or weed control at 250 g/ha: 250 g ai/ha, read-out: damage to plant, Pigweed, Redroot (100=total damage to plant; 0=no damage to plant)
# Method: as §1, with “8 days” for “one day”
# as §2
# [8] = test system: giant foxtail (Setaria faberi); assay: Test G Post-Emergence Protocol; conditions: Setaria faberi, post-emergence, 312 h; for pest or weed control at 15.625 g/ha: 15.625 g ai/ha, evaluated after 13 days (100=total damage to plant; 0=no damage to plant), read-out: Foxtail, Giant damage rating; for pest or weed control at 62.5 g/ha: 62.5 g ai/ha, read-out: Foxtail, Giant damage rating (100=total damage to plant; 0=no damage to plant); for pest or weed control at 62.5 g/ha / pest or weed control at 250 g/ha: evaluated after 13 days; for pest or weed control at 250 g/ha: 250 g ai/ha, read-out: damage to plant, Foxtail, Giant (100=total damage to plant; 0=no damage to plant)
# Method: as §1, with “8 days” for “one day”
# as §2
# [9] = test system: barnyardgrass (Echinochloa crus-galli); assay: Test G Post-Emergence Protocol; conditions: Echinochloa crus-galli, post-emergence, 312 h; for pest or weed control at 15.625 g/ha: 15.625 g ai/ha, evaluated after 13 days (100=total damage to plant; 0=no damage to plant), read-out: Barnyardgrass damage rating; for pest or weed control at 62.5 g/ha: 62.5 g ai/ha, read-out: Barnyardgrass damage rating (100=total damage to plant; 0=no damage to plant); for pest or weed control at 62.5 g/ha / pest or weed control at 250 g/ha: evaluated after 13 days; for pest or weed control at 250 g/ha: 250 g ai/ha, read-out: damage to plant, Barnyardgrass (100=total damage to plant; 0=no damage to plant)
# Method: as §1, with “8 days” for “one day”
# as §2
# [10] = test system: velvetleaf (Abutilon theophrasti); assay: Test G Post-Emergence Protocol; conditions: Abutilon theophrasti, post-emergence, 312 h; for pest or weed control at 15.625 g/ha: 15.625 g ai/ha, evaluated after 13 days (100=total damage to plant; 0=no damage to plant), read-out: Velvetleaf damage rating; for pest or weed control at 62.5 g/ha: 62.5 g ai/ha, read-out: Velvetleaf damage rating (100=total damage to plant; 0=no damage to plant); for pest or weed control at 62.5 g/ha / pest or weed control at 250 g/ha: evaluated after 13 days; for pest or weed control at 250 g/ha: 250 g ai/ha, read-out: damage to plant, Velvetleaf (100=total damage to plant; 0=no damage to plant)
# Method: as §1, with “8 days” for “one day”
# as §2
# [11] = test system: ivy-leaved morning glory (Ipomoea hederacea); assay: Test G Post-Emergence Protocol; conditions: Ipomoea, post-emergence, 312 h; for pest or weed control at 15.625 g/ha: 15.625 g ai/ha, evaluated after 13 days (100=total damage to plant; 0=no damage to plant), read-out: Morningglory, Ivy-leaved damage rating; for pest or weed control at 62.5 g/ha: 62.5 g ai/ha, read-out: Morningglory, Ivy-leaved damage rating (100=total damage to plant; 0=no damage to plant); for pest or weed control at 62.5 g/ha / pest or weed control at 250 g/ha: evaluated after 13 days; for pest or weed control at 250 g/ha: 250 g ai/ha, read-out: damage to plant, Morningglory, Ivy-leaved (100=total damage to plant; 0=no damage to plant)
# Method: as §1, with “8 days” for “one day”
# as §2
# corn (Zea mays) [12] = assay: Test G Post-Emergence Protocol; conditions: Zea mays, post-emergence, 312 h; for plant injury at 15.625 g/ha: 15.625 g ai/ha, evaluated after 13 days (100=total damage to plant; 0=no damage to plant), read-out: Corn damage rating; for plant injury at 62.5 g/ha: 62.5 g ai/ha, read-out: Corn damage rating (100=total damage to plant; 0=no damage to plant); for plant injury at 62.5 g/ha / plant injury at 250 g/ha: evaluated after 13 days; for plant injury at 250 g/ha: 250 g ai/ha, read-out: damage to plant, Corn (100=total damage to plant; 0=no damage to plant)
# Method: as §1, with “8 days” for “one day”
# as §2
Structure (SMILES),pest or weed control at 15.625 g/ha [1],pest or weed control at 62.5 g/ha [1],pest or weed control at 250 g/ha [1],pest or weed control at 15.625 g/ha [2],pest or weed control at 62.5 g/ha [2],pest or weed control at 250 g/ha [2],pest or weed control at 15.625 g/ha [3],pest or weed control at 62.5 g/ha [3],pest or weed control at 250 g/ha [3],pest or weed control at 15.625 g/ha [4],pest or weed control at 62.5 g/ha [4],pest or weed control at 250 g/ha [4],pest or weed control at 15.625 g/ha [5],pest or weed control at 62.5 g/ha [5],pest or weed control at 250 g/ha [5],plant injury at 15.625 g/ha (corn (Zea mays) [6]),plant injury at 62.5 g/ha (corn (Zea mays) [6]),plant injury at 250 g/ha (corn (Zea mays) [6]),pest or weed control at 15.625 g/ha [7],pest or weed control at 62.5 g/ha [7],other results
CN1C[C@@H](c2ccc(C(F)(F)F)cc2)[C@@](O)(C(=O)Nc2cccc(F)c2F)C1=O (racemic) [Compound 1403],0%,0%,0%,0%,0%,0%,0%,0%,0%,0%,0%,0%,0%,0%,0%,0%,0%,0%,10%,10%,pest or weed control at 250 g/ha [7]: 10%; pest or weed control at 15.625 g/ha [8]: 0%; pest or weed control at 62.5 g/ha [8]: 0%; pest or weed control at 250 g/ha [8]: 0%; pest or weed control at 15.625 g/ha [9]: 0%; pest or weed control at 62.5 g/ha [9]: 0%; pest or weed control at 250 g/ha [9]: 10%; pest or weed control at 15.625 g/ha [10]: 0%; pest or weed control at 62.5 g/ha [10]: 0%; pest or weed control at 250 g/ha [10]: 0%; pest or weed control at 15.625 g/ha [11]: 0%; pest or weed control at 62.5 g/ha [11]: 0%; pest or weed control at 250 g/ha [11]: 0%; plant injury at 15.625 g/ha (corn (Zea mays) [12]): 10%; plant injury at 62.5 g/ha (corn (Zea mays) [12]): 10%; plant injury at 250 g/ha (corn (Zea mays) [12]): 20%
Cc1ccc([C@H]2CN(C)C(=O)[C@@H]2C(=O)Nc2ccccc2F)cc1Cl (racemic) [Compound 1420],0%,0%,0%,70%,80%,80%,60%,70%,80%,0%,0%,0%,0%,0%,0%,0%,50%,70%,0%,0%,pest or weed control at 250 g/ha [7]: 20%; pest or weed control at 15.625 g/ha [8]: 50%; pest or weed control at 62.5 g/ha [8]: 60%; pest or weed control at 250 g/ha [8]: 60%; pest or weed control at 15.625 g/ha [9]: 10%; pest or weed control at 62.5 g/ha [9]: 40%; pest or weed control at 250 g/ha [9]: 40%; pest or weed control at 15.625 g/ha [10]: 0%; pest or weed control at 62.5 g/ha [10]: 0%; pest or weed control at 250 g/ha [10]: 10%; pest or weed control at 15.625 g/ha [11]: 0%; pest or weed control at 62.5 g/ha [11]: 10%; pest or weed control at 250 g/ha [11]: 0%; plant injury at 15.625 g/ha (corn (Zea mays) [12]): 10%; plant injury at 62.5 g/ha (corn (Zea mays) [12]): 40%; plant injury at 250 g/ha (corn (Zea mays) [12]): 60%
